The source of these data is patent US10179761B2, “Compounds, pharmaceutical composition and their use in treating neurodegenerative diseases” (UNIVERSITE DE LILLE 2 DROIT ET SANTE, priority 2014, dated 2019).

The target in test [1] is T1, σ1 receptors (Homo sapiens (Human), UniProt Q99720). In words: σ1 binding assay, Jurkat cell membranes, [3H](+)-pentazocine. The conditions noted are these: hydrochloride salts; mean of 2 or 3 independent experiments; Ki from IC50 (Cheng-Prusoff); read-out: Sigma 1 Ki.
In test [2] the target is T1, σ1 receptors. The test is described as above. The following applies: selectivity, Ki sigma 2 / Ki sigma 1. How it is done:
(§1) The σ binding assays were performed according to Ganapathy et al. (Ganapathy, M. E.; Prasad, P. D.; Huang, W.; Seth, P.; Leibach, F. H.; Ganapathy, V. Molecular and ligand-binding characterization of the sigma-receptor in the Jurkat human T lymphocyte cell line. J. Pharmacol. Exp. Ther. 1999, 289, 251-260). […] The σ2 binding assay was performed by incubating Jurkat cell membranes ([…] protein per tube) with [^3H]-DTG (25 nM) in presence of (+)-pentazocine (1 μM) to saturate σ1 receptors, and a range of concentrations of tested compounds, at room temperature for 1 hour in 5 mM Tris/HCl buffer (pH=7.4). The final assay volume was 0.5 mL. Binding was terminated by rapid filtration through Wathman GF/B filters, which were then washed with 5×1 mL ice-cold NaCl solution and allowed to dry before bound radioactivity was measured using liquid scintillation counting. Nonspecific binding was determined, in both assays, under similar conditions, but in presence of 10 μM unlabeled haloperidol. Inhibition constants (Ki) were calculated from the IC50 values according to the method of Cheng and Prusoff (Cheng, Y.; Prusoff, W. H. Relationship between the inhibition constant (Ki) and the concentration of inhibitor which causes 50 percent inhibition (IC50) of an enzymatic reaction. Biochem Pharmacol. 1973, 22 (23), 3099-108): […]

The next test has as its target σ2 receptors (Homo sapiens (Human), UniProt Q5BJF2). Description: σ2 binding assay, Jurkat cell membranes, [3H]-DTG in presence of (+)-pentazocine. The conditions noted are these: read-out: Sigma 2 Ki. How it is done:
as §1

In test [3] the test system is Male Swiss mice. In words: Dizocilpine-induced learning deficits: spontaneous alternation in the Y-maze. Format: in vivo. The conditions noted are these: NE-100 3 mg/kg + dizocilpine 0.15 mg/kg i.p. How it is done:
(§2) The activity of compound 3.1.10 was evaluated on the prevention of the dizocilpine-induced learning deficits measured using two behavioral tests. The present experiment tested if its anti-amnesic activity could be blocked by pretreatment with the reference sigma-1 receptor antagonist NE-100.
(§3) • Sixty (60) mice were used. Behavioral testing started one week after the arrival of the animals in the AMYLGEN animal facility. • 5 treatment groups were designed and used as follows:
(§4) • Vehicle 1 was physiological saline for dizocilpine, DMSO 2% in water for compound 3.1.10 • Animals were used at day 1 in the Y-maze test and at days 2 and 3 in the passive avoidance test, with training at day 2 and retention at day 3. • Test compounds, compound 3.1.10 and/or NE-100 were administered 10 min before dizocilpine (at 0.15 mg/kg i.p.) or vehicle. • Dizocilpine or vehicle 1 was administered 20 min before the Y-maze test session on day 1. • Dizocilpine or vehicle 1 was administered 20 min before the passive avoidance training session on day 2. Drugs were not injected before the retention session on day 3. • The whole experiment program was performed in a single serie experiment. • Treatments were randomized. 2.1.2. Animals
Male Swiss mice, 6 weeks old and weighing 30-35 g, from JANVIER (Saint Berthevin, France), were housed in groups with access to food and water ad libitum, except during experiments. They were kept in a temperature and humidity controlled animal facility on a 12 h/12 h light:dark cycle (lights on at 7:00 am). […]
Animals were tested for spontaneous alternation performance in the Y-maze, an index of spatial working memory. […] The number of maximum alternations was therefore the total number of arm entries minus two and the percentage of alternation was calculated as: (actual alternations/maximum alternations)×100. […]
All values, except passive avoidance latencies, were expressed as mean±S.E.M. Statistical analyses were performed using two-way ANOVA (F value), with genotype and peptide treatment as independent factors, followed by a Dunn's post-hoc multiple comparison test.

The subject of test [4] is Male Swiss mice. In words: Dizocilpine-induced learning deficits: step-through passive avoidance test. Format: in vivo. The conditions noted are these: NE-100 3 mg/kg + dizocilpine 0.15 mg/kg i.p. The protocol: as §2, §3, §4
Male Swiss mice, 6 weeks old and weighing 30-35 g, from JANVIER (Saint Berthevin, France), were housed in groups with access to food and water ad libitum, except during experiments. […]
The apparatus is a two-compartments (15×20×15 cm high) box with one illuminated with white polyvinylchloride walls and the other darkened with black polyvinylchloride walls and a grid floor. […] The step-through latency (the latency spent to enter the dark compartment) and the number of vocalizations was recorded. […] The step-through latency was recorded up to 300 s. When the mouse entered the dark compartment or 300 s has elapsed (they were therefore manually placed in it), the escape latency (latency to exit from the dark compartment) was recorded up to 300 s.
They were therefore analyzed using a Kruskal-Wallis non-parametric ANOVA (H value), followed by a Dunn's multiple comparison test.

Where [5] appears, read: hydrochloride salts, mean of 2 or 3 independent experiments, Ki from IC50 (Cheng-Prusoff).

Where “and” joins values, the source holds several entries; their conditions need not be identical. Equal entries are not always repeated. Where two headings read alike, the source gives them in different places.

σ2 receptors, sequence (Q5BJF2 whole entry): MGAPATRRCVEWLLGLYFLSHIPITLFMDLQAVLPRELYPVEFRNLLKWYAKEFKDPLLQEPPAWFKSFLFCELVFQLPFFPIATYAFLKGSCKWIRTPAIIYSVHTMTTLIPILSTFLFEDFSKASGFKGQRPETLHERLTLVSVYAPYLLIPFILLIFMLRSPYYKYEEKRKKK
T1 sequence (Q99720 whole entry): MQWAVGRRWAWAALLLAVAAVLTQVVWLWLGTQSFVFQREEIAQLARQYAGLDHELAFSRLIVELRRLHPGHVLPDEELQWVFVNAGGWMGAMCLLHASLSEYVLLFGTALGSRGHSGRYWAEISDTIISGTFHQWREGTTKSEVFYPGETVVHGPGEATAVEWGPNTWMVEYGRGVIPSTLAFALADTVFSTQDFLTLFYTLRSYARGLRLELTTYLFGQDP

`CN(CCCNC(=O)c1ccc(Br)cc1F)Cc1ccccc1` [Compound 3.1.27, N-[3-(benzylmethylamino)propyl]-4-bromo-2-fluorobenzamide]: the inhibition constant Ki on σ1 receptors [1] is 2.9 nM.
For the compound `CN(CCCNC(=O)c1ccc(Cl)cc1)CCc1ccccc1` [Compound 3.1.12, N-[3-(N-methyl-2-phenylethylamino)propyl]-4-chlorobenzamide], on σ1 receptors [2], the “Ratio σ2/σ1” value is 47. For the same compound, the values for the Ki on σ2 receptors (setting [5]) and at σ1 receptors [1] were 200 nM and 4.3 nM, respectively.
For `CCCN(CCC)CCc1ccc(OC)c(OCCc2ccccc2)c1.Cl` [NE-100, reference compound], the “effect of NE-100 by itself on dizocilpine-induced deficits, Y-maze test” value in the test on Male Swiss mice [3] is recorded as “devoid of effect by itself”. Also, in the test with Male Swiss mice [4], the “effect of NE-100 by itself on dizocilpine-induced deficits, passive avoidance test” value is on record as “devoid of effect by itself”.
Take `CN(CCCNC(=O)c1cc(Cl)cc(Cl)c1)Cc1ccccc1` [Compound 3.1.26, N-[3-(benzylmethylamino)propyl]-3,5-dichlorobenzamide]: the “Ratio σ2/σ1” value at σ1 receptors [2] stood at 2. Moreover, the Ki came to 48 nM at σ2 receptors (setting [5]) and 23 nM at σ1 receptors [1].
For `CN(CCNC(=O)c1ccc(Cl)cc1Cl)Cc1ccccc1` [Compound 3.1.34, N-(2-(benzyl(methyl)amino)ethyl)-2,4-dichlorobenzamide], the “Ratio σ2/σ1” value at σ1 receptors [2] is 17. Also, the Ki came out at 110 nM at σ2 receptors (setting [5]) and 6.5 nM on σ1 receptors [1].
For the compound `CN(CCC(=O)NCc1ccc(C#N)cc1)Cc1ccccc1` [Compound 3.4c, N-(4-Cyanobenzyl)-3-(benzylmethylamino)propanamide], the “Ratio σ2/σ1” value on σ1 receptors [2] amounted to 321. For the same compound, the Ki on σ2 receptors was 1800 nM; at σ1 receptors [1] it was 5.6 nM.
Regarding `CN(CCCNC(=O)c1cccc(Cl)c1)Cc1ccccc1` [Compound 3.1.8, N-[3-(benzylmethylamino)propyl]-3-chlorobenzamide], at σ1 receptors [2], the “Ratio σ2/σ1” value stood at 34. In addition, the inhibition constant (Ki) at σ2 receptors (setting [5]) is 340 nM; on σ1 receptors [1] it was 10 nM.
As for `CN(CCNC(=O)c1ccc([N+](=O)[O-])cc1)Cc1ccccc1` [Compound 3.1.37, N-(2-(benzyl(methyl)amino)ethyl)-4-nitrobenzamide], the Ki was 1400 nM at σ2 receptors (setting [5]) and 3.6 nM on σ1 receptors [1].
`CN(CCCNC(=O)c1ccc(Cl)cc1Cl)Cc1ccccc1` [Compound 3.1.24, N-[3-(benzylmethylamino)propyl]-2,4-dichlorobenzamide]: the “Ratio σ2/σ1” value at σ1 receptors [2] turned out to be 238. The Ki was 310 nM at σ2 receptors (setting [5]); 1.3 to 3.6 nM and 1.3 nM on σ1 receptors [1].
Turning to `CN(CCCNC(=O)c1ccc(F)cc1)Cc1ccccc1` [Compound 3.1.6, N-[3-(benzylmethylamino)propyl]-4-fluorobenzamide], on σ1 receptors [2], the “Ratio σ2/σ1” value is listed as 24. In addition, the inhibition constant Ki at σ2 receptors (setting [5]) stood at 470 nM; on σ1 receptors [1], 20 nM.
The corresponding values for `CN(CCCNC(=O)c1cccc(Br)c1)Cc1ccccc1` [Compound 3.1.21, N-[3-(benzylmethylamino)propyl]-3-bromobenzamide] are 90, 350 nM and 3.9 nM.
With `CN(CCC(=O)NCc1ccc(Cl)cc1Cl)Cc1ccccc1` [Compound 3.4d, N-(2,4-Dichlorobenzyl)-3-(benzylmethylamino)propanamide], the “Ratio σ2/σ1” value at σ1 receptors [2] amounted to 52. Moreover, the figures for the Ki at σ2 receptors and at σ1 receptors [1] were 120 nM and 2.3 nM, respectively.
In the case of `CN(CCC(=O)NCc1ccc([N+](=O)[O-])cc1)Cc1ccccc1` [Compound 3.4b, N-(4-Nitrobenzyl)-3-(benzylmethylamino)propanamide], the inhibition constant Ki was 6500 nM on σ2 receptors; 1.3 to 3.6 nM and 2.3 nM at σ1 receptors [1].
As to `CN(CCC(=O)NCc1cccc(Cl)c1)Cc1ccccc1` [Compound 3.4e, N-(3-Chlorobenzyl)-3-(benzylmethylamino)propanamide], on σ1 receptors [2], the “Ratio σ2/σ1” value is given as 317. Moreover, the Ki stood at 200 nM on σ2 receptors and 0.63 nM on σ1 receptors [1].
Consider `O=C(NCCCNCN1Cc2ccccc2C1)c1ccc(Cl)cc1` [Compound 3.1.15], for which the Ki on σ1 receptors [1] came out at 19 nM.
On to `CN(CCNC(=O)c1ccc(C#N)cc1)Cc1ccccc1` [Compound 3.1.36, N-(2-(benzyl(methyl)amino)ethyl)-4-cyanobenzamide], for which the Ki at σ2 receptors (setting [5]) amounted to 170 nM; on σ1 receptors [1], 1.2 nM.
Take `CN(CCNC(=O)c1ccc(Cl)cc1)Cc1ccccc1` [Compound 3.1.9, N-[3-(2-(N-methylbenzyl)amino)ethyl]-4-chlorobenzamide]: the Ki on σ2 receptors (setting [5]) came to 850 nM.
As for `CN(CCC(=O)NCc1ccc(Cl)cc1)Cc1ccccc1` [Compound 3.4a, N-(4-chlorobenzyl)-3-(benzylmethylamino)propanamide], the “Ratio σ2/σ1” value on σ1 receptors [2] was 241. In addition, the figures for the Ki on σ2 receptors and on σ1 receptors [1] were 410 nM and 1.7 nM, respectively.

Broadly, the Ki is the equilibrium dissociation constant of an inhibitor or competing ligand from its target.
